# From US20040106838A1, “Use of ionic liquids to separate diolefins” (NOVA Chemicals (International) S.A., priority 2002, published 2004)
# Where two headings read alike, the source gives them in different places.
# What was measured:
# [1] = C5 hydrocarbon solubility in bmim+ BF4− ionic liquid
# Description: The testing apparatus consisted of a flat-bottomed florence flask with a graduated neck. The flask was charged with 75 mL of bmim^+ BF4^−, the level being recorded. A known quantity of a C5 hydrocarbon was then added to the flask and the flask was sealed. The overall liquid level and the location of the liquid-liquid interfacial meniscus were recorded. The mixture was then agitated to contact the two liquids and the two phases were allowed to separate. The locations of all meniscuses were then recorded. Agitation and phase separation was then repeated until the liquid levels remained unchanged. The volume change of the hydrocarbon phase corresponds to the quantity of hydrocarbon dissolved in the ionic liquid. The testing was conducted at ambient temperature.
# [2] = Liquid-liquid extraction of butadiene from mixed C4 by bmim+ BF4− ionic liquid; assay type: physicochemical; settings: room temperature
# Source text: The testing apparatus consists of three sample cylinders (150 cc, 10 cc, and 50 cc) connected by ⅜-inch tubing (in the order listed) with valves allowing for isolation of each cylinder. A gas syringe is used to take C4 samples for GC analysis. Various mixed C4S were used which contained varying quantities of 1,3-butadiene (ranging from 15-85 weight %). The composition range of the non-butadiene fraction of the standards was (in weight %) n-butane 29-33%, 1-butene 20-33%, isobutene 0-36%, trans-2-butene 7-17%, and cis-2-butene 5-17%.
# To measure C4 extraction, 40 mL of bmim^+ BF4^− absorbent is loaded into the 150 cc cylinder and the 10 cc and 150 cc cylinders are then evacuated. The 10 cc cylinder is then isolated and charged with mixed C4 liquid. This liquid is then added to the 150 cc cylinder. The 10 cc cylinder is then isolated and a second 10 cc is then added to the and subsequently added to the 150 cc cylinder and the 150 cc cylinder is isolated. The apparatus is then agitated to maximize contact between the C4 and ionic liquid phases within the 150 cc cylinder. Following agitation, the liquid is allowed to sit 12 hours to allow the two liquid phases to separate.
# To determine the level and composition of C4 in the ionic liquid, a 10 cc sample of ionic liquid from the 150 cc cylinder is charged into the 10 cc cylinder. The 150 cc cylinder is then isolated and the 10 cc ionic liquid sample is charged to the 50 cc cylinder, which is then isolated. The 50 cc cylinder is then heated and the gas syringe is used to collect C4 gas evolving from the ionic liquid. The collected gas is analyzed by GC.
# These pseudo-equilibrium extraction experiments conducted for different butadiene concentrations yielded enhanced concentrations of butadiene in the C4 extracted by the ionic liquid.
# [3] = in 1-butyl-3-methylimidazolium tetrafluoroborate (bmim+ BF4−), ambient temperature
# [4] = solubility in bmim+ BF4−, ambient temperature
smiles,measurement,setting,value
"CC=C(C)C [2-Methyl-2-Butene, 2-methyl-2-butene]",Solubility (mol C5/L Ionic Liquid),[1]; [3],0.360 mol C5/L Ionic Liquid
same,Selectivity Over Isopentane,[1]; [4],10.6
"C=CC=C [Butadiene, 1,3-butadiene]",Butadiene Concentration in Extracted C4 (wt %),[2]; Butadiene Concentration in Feed 15 wt %,37.6 wt %
same,Butadiene Concentration in Extracted C4 (wt %),[2]; Butadiene Concentration in Feed 30 wt %,43.3 wt %
same,Butadiene Concentration in Extracted C4 (wt %),[2]; Butadiene Concentration in Feed 50 wt %,74.1 wt %
same,Butadiene Concentration in Extracted C4 (wt %),[2]; Butadiene Concentration in Feed 70 wt %,82.0 wt %
same,Butadiene Concentration in Extracted C4 (wt %),[2]; Butadiene Concentration in Feed 85 wt %,91.8 wt %
"CCC(C)C [Isopentane, isopentane]",Solubility (mol C5/L Ionic Liquid),[1],0.034 mol C5/L Ionic Liquid
"C=CC(=C)C [Isoprene, isoprene]",Solubility (mol C5/L Ionic Liquid),[1]; [3],0.611 mol C5/L Ionic Liquid
same,Selectivity Over 2-Methyl-2-Butene,[1]; [4],1.7
same,Selectivity Over Isopentane,[1]; [4],18.0
